Assay results published in the supplement of paper PMC13380429.

Tests used:
Settings in all cases: 72 h
Caco-2 [1] = test: cell viability relative to DMSO; higher = less toxic
Calu-3 [2] = test: as above
HepG2 [3] = test: as above
U2OS [4] = test: as above
Vero E6 [5] = test: as above
Caco-2 [6] = test: relative viability EC50 (midpoint between 100% and the lowest measured viability); higher = less toxic
Calu-3 [7] = test: as above
HepG2 [8] = test: as above
U2OS [9] = test: as above
Vero E6 [10] = test: as above
Caco-2 [11] = test: drug sensitivity score (DSS) for viability; higher = more toxic; extreme values may be limits of the assay
Calu-3 [12] = test: as above
HepG2 [13] = test: as above
U2OS [14] = test: as above
Vero E6 [15] = test: as above

Row | Compound | cell viability (Caco-2 [1]; 1 nM) [%] | cell viability (Caco-2 [1]; 10 nM) [%] | cell viability (Caco-2 [1]; 100 nM) [%] | cell viability (Caco-2 [1]; 1000 nM) [%] | cell viability (Caco-2 [1]; 10000 nM) [%] | cell viability (Calu-3 [2]; 1 nM) [%] | cell viability (Calu-3 [2]; 10 nM) [%] | cell viability (Calu-3 [2]; 100 nM) [%] | cell viability (Calu-3 [2]; 1000 nM) [%] | cell viability (Calu-3 [2]; 10000 nM) [%] | cell viability (HepG2 [3]; 1 nM) [%] | cell viability (HepG2 [3]; 10 nM) [%] | cell viability (HepG2 [3]; 100 nM) [%] | cell viability (HepG2 [3]; 1000 nM) [%] | cell viability (HepG2 [3]; 10000 nM) [%] | cell viability (U2OS [4]; 1 nM) [%] | cell viability (U2OS [4]; 10 nM) [%] | cell viability (U2OS [4]; 100 nM) [%] | cell viability (U2OS [4]; 1000 nM) [%] | cell viability (U2OS [4]; 10000 nM) [%] | cell viability (Vero E6 [5]; 1 nM) [%] | cell viability (Vero E6 [5]; 10 nM) [%] | cell viability (Vero E6 [5]; 100 nM) [%] | cell viability (Vero E6 [5]; 1000 nM) [%] | cell viability (Vero E6 [5]; 10000 nM) [%] | relative viability EC50 (Caco-2 [6]) [µM] | relative viability EC50 (Calu-3 [7]) [µM] | relative viability EC50 (HepG2 [8]) [µM] | relative viability EC50 (U2OS [9]) [µM] | relative viability EC50 (Vero E6 [10]) [µM] | drug sensitivity score (Caco-2 [11]) | drug sensitivity score (Calu-3 [12]) | drug sensitivity score (HepG2 [13]) | drug sensitivity score (U2OS [14]) | drug sensitivity score (Vero E6 [15])
1 | O=C(N[C@@H](Cc1c[nH]c2ccccc12)C(=O)O)c1ccc(Cl)cc1 [benzotript] | 99.9 | 102 | 101 | 100 | 99.4 | 87.8 | 99.4 | 98 | 100 | 108 | 99.7 | 98.1 | 102 | 103 | 108 | 96 | 99.5 | 94.3 | 101 | 95.9 | 104 | 99.3 | 98.1 | 102 | 107 | > 10 | > 10 | > 10 | > 10 | > 10 | 0 | 0 | 0 | 0 | 0
2 | CCC(=O)c1cc(-c2ccc(Cl)cc2)n(-c2ccc(S(N)(=O)=O)cc2)c1C | 101 | 91.1 | 107 | 96.5 | 89.7 | 96.6 | 97.4 | 103 | 102 | 103 | 105 | 102 | 102 | 122 | 91.5 | 103 | 99.6 | 99.3 | 96.4 | 102 | 103 | 104 | 98.4 | 101 | 91.2 | > 10 | > 10 | > 10 | > 10 | > 10 | 0 | 0 | 0 | 0 | 0
3 | CN1CC(=O)N=C1NC(=O)Nc1cccc(Cl)c1 [fenobam] | 93.1 | 94.4 | 90.1 | 103 | 97.7 | 102 | 101 | 100 | 105 | 97.1 | 110 | 99.4 | 112 | 97 | 103 | 96.6 | 106 | 98.2 | 102 | 98.3 | 100 | 97 | 99.5 | 100 | 101 | > 10 | > 10 | > 10 | > 10 | > 10 | 0 | 0 | 0 | 0 | 0
